Results published in PubChem BioAssay (NCI).
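Test compounds were applied to cells in 96-well plates for 48 hours at 5 doses. At the GI50, growth is halved. TGI denotes the concentration required for complete inhibition of growth.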

Key:
Assay in all cases: DTP human tumour cell line panel, 48 h
[1] = system: 786-0 renal
[2] = system: A498 renal
[3] = system: A549 NSCLC
[4] = system: ACHN renal
[5] = system: BT-549 breast
[6] = system: CAKI-1 renal
[7] = system: CCRF-CEM leukemia
[8] = system: COLO 205 colon
[9] = system: DU-145 prostate
[10] = system: HCC-2998 colon
[11] = system: HCT-116 colon
[12] = system: HCT-15 colon
[13] = system: HOP-62 NSCLC
[14] = system: HOP-92 NSCLC
[15] = system: HS 578T breast
[16] = system: HT29 colon
[17] = system: IGROV1 ovarian
[18] = system: K-562 leukemia
[19] = system: KM12 colon
[20] = system: LOX IMVI melanoma
[21] = system: M14 melanoma
[22] = system: MALME-3M melanoma
[23] = system: MCF7 breast
[24] = system: MDA-MB-231 breast
[25] = system: MDA-MB-435
[26] = system: MOLT-4 leukemia
[27] = system: NCI-H226 lung
[28] = system: NCI-H23 lung
[29] = system: NCI-H460 lung
[30] = system: NCI-H522 lung
[31] = system: NCI/ADR-RES ovarian
[32] = system: OVCAR-3 ovarian
[33] = system: OVCAR-4 ovarian
[34] = system: OVCAR-5 ovarian
[35] = system: OVCAR-8 ovarian
[36] = system: PC-3 prostate
[37] = system: RPMI-8226 leukemia
[38] = system: RXF 393 renal
[39] = system: SF-268 CNS
[40] = system: SF-295 CNS
[41] = system: SF-539 CNS
[42] = system: SK-MEL-2 melanoma
[43] = system: SK-MEL-28 melanoma
[44] = system: SK-MEL-5 melanoma
[45] = system: SK-OV-3 ovarian
[46] = system: SN12C renal
[47] = system: SNB-19 CNS
[48] = system: SNB-75 CNS
[49] = system: SR leukemia
[50] = system: SW-620 colon
[51] = system: T-47D breast
[52] = system: TK-10 renal
[53] = system: U251 CNS
[54] = system: UACC-257 melanoma
[55] = system: UACC-62 melanoma
[56] = system: UO-31 renal

## O=C(Nc1ccc(OCc2nnc(-c3ccc(Cl)cc3)o2)c(F)c1)Nc1ccc(Cl)c(Cl)c1
[1]
  GI50: 12.5 µM
  TGI: 42.7 µM
[2]
  GI50: 1.56 µM
  TGI: 21.9 µM
[3]
  GI50: 6.07 µM
  TGI: 47.1 µM
[4]
  GI50: 4.95 µM
  TGI: 62.6 µM
[5]
  GI50: 7.11 µM
  TGI: 29.7 µM
[6]
  GI50: 21.7 µM
  TGI: > 100 µM
[7]
  GI50: 7.09 µM
  TGI: 68.6 µM
[8]
  GI50: 6.94 µM
  TGI: > 100 µM
[9]
  GI50: 5.07 µM
  TGI: 21.3 µM
[10]
  GI50: 20.7 µM
  TGI: > 100 µM
[11]
  GI50: 5.01 µM
  TGI: > 100 µM
[12]
  GI50: 15 µM
  TGI: > 100 µM
[13]
  GI50: 3.6 µM
  TGI: 19.5 µM
[14]
  GI50: 2.39 µM
  TGI: 8.27 µM
[15]
  GI50: 1.95 µM
  TGI: 8.53 µM
[16]
  GI50: 6.24 µM
  TGI: > 100 µM
[17]
  GI50: 12.2 µM
  TGI: 52.3 µM
[18]
  GI50: 3.77 µM
  TGI: > 100 µM
[19]
  GI50: 16.5 µM
  TGI: > 100 µM
[20]
  GI50: 3.3 µM
  TGI: 13.2 µM
[21]
  GI50: 11.3 µM
  TGI: > 100 µM
[22]
  GI50: 2.76 µM
  TGI: 8.77 µM
[23]
  GI50: 5.62 µM
  TGI: > 100 µM
[24]
  GI50: 5.39 µM
  TGI: 41.1 µM
[25]
  GI50: 9.55 µM
  TGI: > 100 µM
[26]
  GI50: 12.9 µM
  TGI: 53.1 µM
[27]
  GI50: 5.94 µM
  TGI: 56.1 µM
[28]
  GI50: 4.62 µM
  TGI: 20.6 µM
[29]
  GI50: 3.9 µM
  TGI: 25 µM
[30]
  GI50: 6.06 µM
  TGI: 52.1 µM
[31]
  GI50: 10 µM
  TGI: 41.3 µM
[32]
  GI50: 10.7 µM
  TGI: 35 µM
[33]
  GI50: 2.99 µM
  TGI: 14.1 µM
[34]
  GI50: 22.5 µM
  TGI: > 100 µM
[35]
  GI50: 8.56 µM
  TGI: > 100 µM
[36]
  GI50: 6.16 µM
  TGI: 29.9 µM
[37]
  GI50: 10.7 µM
  TGI: 56.6 µM
[38]
  GI50: 6.78 µM
  TGI: 24.2 µM
[39]
  GI50: 7.58 µM
  TGI: 35.8 µM
[40]
  GI50: 3.63 µM
  TGI: 19.5 µM
[41]
  GI50: 6.92 µM
  TGI: 27.7 µM
[42]
  GI50: 9.23 µM
  TGI: 37 µM
[43]
  GI50: 5.17 µM
  TGI: 28.6 µM
[44]
  GI50: 6.6 µM
  TGI: 45.4 µM
[45]
  GI50: 9.09 µM
  TGI: 40.6 µM
[46]
  GI50: 11.3 µM
  TGI: > 100 µM
[47]
  GI50: 5.97 µM
  TGI: 45.5 µM
[48]
  GI50: 1.72 µM
  TGI: 4.88 µM
[49]
  GI50: 2.09 µM
  TGI: 7.57 µM
[50]
  GI50: 6.77 µM
  TGI: 67.9 µM
[51]
  GI50: 2.83 µM
  TGI: 26.5 µM
[52]
  GI50: 4.78 µM
  TGI: 22.9 µM
[53]
  GI50: 4.08 µM
  TGI: 25 µM
[54]
  GI50: 10.6 µM
  TGI: > 100 µM
[55]
  GI50: 5.84 µM
  TGI: 39 µM
[56]
  GI50: 13.5 µM
  TGI: 49.3 µM
